Experimental data published in ChEMBL document CHEMBL3137667, “[Drug-induced liver injury; fourteenth updated edition of the bibliographic database of liver injuries and related drugs]” (Gastroenterol Clin Biol, 2004).

Tests used:
[1] = Highest frequency of moderate liver toxicity observed during clinical trials, expressed as a percentage. [column '% BIOL' in source]; settings: human
[2] = Highest frequency of acute liver toxicity observed during clinical trials, expressed as a percentage. [column '% AIGUE' in source]; settings: human
[3] = Presence of at least one case with successful reintroduction. [column 'REINT' in source]; settings: human
[4] = Comments (NB not yet translated). [column 'COMMENTAIRES' in source]; settings: human
[5] = Times to onset, minimal and maximal, observed in the indexed observations. [column 'DELAI' in source]; settings: human
[6] = Proposed mechanism(s) of liver damage. [column 'MEC' in source]; settings: human
[7] = human, serum
[8] = human, serum; remark: listed apart in the source
[9] = human
[10] = human; remark: listed apart in the source
[11] = human; remark: listed apart in the source
[12] = human, serum, 4383 h
[13] = human; remark: listed apart in the source
[14] = human; remark: listed apart in the source
[15] = human; remark: listed apart in the source
[16] = human; remark: listed apart in the source
[17] = human; remark: listed apart in the source
[18] = human; remark: listed apart in the source
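For Hepatotoxicity (association with vascular disease) in this document: count of indexed literature references reporting vascular liver injury in humans, e.g. peliosis hepatitis, hepatic veno-occlusive disease or Budd-Chiari syndrome.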
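For Hepatotoxicity (benign tumour) in this document: value is a count of indexed literature references citing a benign tumour confirmed by histopathology.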
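For Hepatotoxicity (choleostasis) in this document: human cholestatic liver injury, shown by histopathology or by peak ALT or AST elevation over alkaline phosphatase ratio below 2, value counts indexed literature reports.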
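For Hepatotoxicity (chronic liver disease) in this document: chronic liver injury confirmed by histopathology or persistently raised serum aminotransferase activity beyond 6 months, value given as the count of indexed literature references.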
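For Hepatotoxicity (cirrhosis) in this document: value is a count of indexed literature references reporting cirrhosis confirmed by histopathology.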
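For Hepatotoxicity (cytolytic) in this document: human cytolytic liver injury, shown by histopathology or by a ratio above 5 of peak ALT or AST elevation to alkaline phosphatase elevation, value counts indexed references.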
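For Hepatotoxicity (granulomatous hepatitis) in this document: value is a count of indexed literature references reporting granulomatous liver disease confirmed by histopathology.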
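For Hepatotoxicity (malignant tumour) in this document: malignant tumour confirmed by histopathology, value gives the count of indexed literature references reporting it.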
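For Hepatotoxicity (severe hepatitis) in this document: human clinical data: severe hepatitis, meaning potentially life-threatening liver failure or clinically observed cases, the value counts how many indexed literature references report it.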
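For Hepatotoxicity (steatosis) in this document: steatosis confirmed by histopathology, value is the count of indexed references.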

| SMILES | Hepatotoxicity (successful reintroduction) [3] | Hepatotoxicity (comment) [4] | Hepatotoxicity (time to onset) [5] | Hepatotoxicity (moderate) [7] | Hepatotoxicity (acute) [8] | Hepatotoxicity (chronic liver disease) [12] | Hepatotoxicity (cirrhosis) [13] | Hepatotoxicity (association with vascular disease) [15] | Hepatotoxicity (steatosis) [16] | Hepatotoxicity (malignant tumour) [17] | Hepatotoxicity (benign tumour) [18] | Hepatotoxicity (moderate) [1] [%] | Hepatotoxicity (acute) [2] [%] | Hepatotoxicity (mechanism) [6] | Hepatotoxicity (cytolytic) [9] | Hepatotoxicity (choleostasis) [10] | Hepatotoxicity (severe hepatitis) [11] | Hepatotoxicity (granulomatous hepatitis) [14] | further results |
| --- | --- | --- | --- | --- | --- | --- | --- | --- | --- | --- | --- | --- | --- | --- | --- | --- | --- | --- | --- |
| CCn1cc(C(=O)O)c(=O)c2cc(F)c(N3CCNCC3)cc21 [NORFLOXACIN] | yes | AC_ANTI-N | 1 day - 10 days | 15 | 9 | 0 | 0 | 0 | 0 | 0 | 0 |  |  |  |  |  |  |  | Hepatotoxicity (moderate) ([1]; Liver): 7.7%; Hepatotoxicity (acute) ([2]; Liver): 0%; Hepatotoxicity (mechanism) ([6]; Liver): Allergic; Hepatotoxicity (cytolytic) ([9]; Liver): 3; Hepatotoxicity (choleostasis) ([10]; Liver): 6; Hepatotoxicity (severe hepatitis) ([11]; Liver): 0; Hepatotoxicity (granulomatous hepatitis) ([14]; Liver): 0 |
| Cc1ncc([N+](=O)[O-])n1CC(O)CCl (configuration not stated) [ORNIDAZOLE] | yes | AC_ANTI-ML/-N | 3 days - 6 months | 1 | 2 | 1 | 0 | 0 | 0 | 0 | 0 | 0 | 0 | Allergic | 2 | 0 | 0 | 0 |  |
| Cc1onc(-c2ccccc2)c1C(=O)N[C@@H]1C(=O)N2[C@@H]1SC(C)(C)[C@@H]2C(=O)O [OXACILLIN] | yes | RC/CEFALOTINE/NAFCILLINE | 2 days - 2.5 months | 12 | 17 | 0 | 0 | 0 | 1 | 0 | 0 | 81 | 22 | Allergic, Toxic Metabolite | 14 | 4 | 0 | 1 |  |
| O=C1Nc2ccccc2C1(c1ccc(O)cc1)c1ccc(O)cc1 [OXYPHENISATINE] | yes | AC_ANTI-ADN/-N/-ML | 1 week - 13 years | 0 | 6 | 27 | 8 | 0 | 0 | 0 | 0 | 0 | 0 | Allergic | 1 | 0 | 1 | 0 |  |
| COc1ccc(Cc2nccc3cc(OC)c(OC)cc23)cc1OC [PAPAVERINE] | yes | AC_ANTI-ADN/-N PERICHOLANGITE | 1 day - 11 years | 11 | 9 | 4 | 3 | 0 | 0 | 0 | 0 | 53 | 3.3 | Allergic, Toxic Metabolite | 7 | 6 | 0 | 1 |  |
| NC1=NC(=O)C(c2ccccc2)O1 (configuration not stated) [PEMOLINE] | yes | AC_ANTI-MF/-N AGGRAVATION_HEPATITE_AUTOIMMUNE | 3 days - 3 years | 4 | 16 | 0 | 0 | 0 | 1 | 0 | 0 | 2 | 0.3 | Allergic, Dose-dependant | 14 | 0 | 10 | 0 |  |
| CC(C)(S)[C@@H](N)C(=O)O [PENICILLAMINE] | yes | CHOLESTASE_PROLONGEE CHOLANGITE | 4 days - 2 years | 12 | 31 | 1 | 0 | 0 | 5 | 0 | 0 | 6 | 0 | Allergic | 5 | 28 | 0 | 2 |  |
| CCC1(c2ccccc2)C(=O)NC(=O)NC1=O [PHENOBARBITAL] | yes | I/PARACETAMOL AC_ANTI-N/-MF CHOLANGITE | 6 days - 2 years | 8 | 30 | 1 | 0 | 0 | 1 | 0 | 0 | 0 | 0 | Allergic | 23 | 4 | 10 | 1 |  |
| CCC(c1ccccc1)c1c(O)c2ccccc2oc1=O (configuration not stated) [PHENPROCOUMON] | yes | RC/ACENOCOUMAROL/WARFARINE CHOLANGITE AC_ANTI-ML/-N | 6 days - 7 years | 2 | 18 | 1 | 1 | 0 | 0 | 0 | 0 | 37 | 0 | Allergic | 14 | 7 | 4 | 1 |  |
